From patent US12667572B2, “Tricyclic compounds useful in the treatment of cancer, autoimmune and inflammatory disorders” (SCHRÖDINGER, INC., priority 2021, dated 2026) come the findings set out here.

This experiment has as its target T1, full-length MALT1 protein His-MALT1(1-824) (Homo sapiens, UniProt Q9UDY8).
T1 construct: full-length MALT1 protein His-MALT1(1-824); His (N); made in house; host or cells: baculovirus-infected insect cells
T1 sequence (Q9UDY8 1-824): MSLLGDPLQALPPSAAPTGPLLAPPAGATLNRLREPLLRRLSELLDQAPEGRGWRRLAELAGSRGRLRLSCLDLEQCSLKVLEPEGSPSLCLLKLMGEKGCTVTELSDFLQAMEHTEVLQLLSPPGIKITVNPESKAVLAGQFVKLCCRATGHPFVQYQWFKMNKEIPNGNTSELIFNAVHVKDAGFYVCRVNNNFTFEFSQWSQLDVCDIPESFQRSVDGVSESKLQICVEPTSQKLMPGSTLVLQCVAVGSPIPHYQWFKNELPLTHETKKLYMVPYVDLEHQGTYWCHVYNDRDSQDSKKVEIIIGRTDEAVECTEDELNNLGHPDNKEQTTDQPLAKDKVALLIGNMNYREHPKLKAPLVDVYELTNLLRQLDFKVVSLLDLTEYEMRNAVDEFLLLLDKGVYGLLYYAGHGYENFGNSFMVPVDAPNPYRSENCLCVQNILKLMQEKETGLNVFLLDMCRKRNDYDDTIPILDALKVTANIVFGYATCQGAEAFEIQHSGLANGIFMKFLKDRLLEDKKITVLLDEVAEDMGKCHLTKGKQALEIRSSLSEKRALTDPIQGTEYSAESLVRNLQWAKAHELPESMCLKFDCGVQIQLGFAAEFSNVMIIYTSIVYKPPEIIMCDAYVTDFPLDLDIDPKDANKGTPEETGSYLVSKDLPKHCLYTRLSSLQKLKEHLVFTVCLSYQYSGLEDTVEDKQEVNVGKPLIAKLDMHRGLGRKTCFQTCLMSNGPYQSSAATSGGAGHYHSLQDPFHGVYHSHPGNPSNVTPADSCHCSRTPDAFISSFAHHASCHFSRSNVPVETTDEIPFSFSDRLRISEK
The experiment is described as follows: MALT1 protease assay, Assay 2 (1 nM MALT1, Ac-LRSR-AMC substrate). The note with it: 1 nM MALT1, 50 μM Ac-LRSR-AMC, 2 h pre-incubation, 8 hr incubation at RT. It is filed as biochemical. As for the experimental part: MALT1 protease activity was assessed in an in vitro assay using a tetrapeptide as substrate and full-length MALT1 protein His-MALT1(1-824) purified from baculovirus-infected insect cells. The tetrapeptide substrate is Ac-LRSR-AMC (SM Biochemicals) with Km measured at around 100 μM.
The final assay buffer includes 1 nM (Assay 2) or 2 nM (Assay 1) of MALT1 full-length protein, 50 μM Ac-LRSR-AMC substrate, 50 mM Tris pH 7.5, 600 mM Sodium Citrate, 1 mM DTT, 1 mM EDTA, and 0.05% BSA in 384-well plate format using black microtiter square well plates (Optiplate 384-F, Perkin Elmer).
Test compounds were dissolved in 100% DMSO at stock of 10 mM, with final DMSO concentration 0.1%. Test compounds were pre-incubated with MALT1 protein for 2 h at room temperature. Substrate was added after the pre-incubation and fluorescence signal was measured using Envision at excitation 355 nm and emission 460 nm after 8 hr incubation at RT. Increase in the assay signal was linear over this period and proportional with increase in the enzyme content.
The fluorescence units were transformed to percentage of remaining activity by using the high control (HC, median of fluorescence signal from wells containing MALT1 protein, substrate, and DMSO) and low control (LC, median of fluorescence signal from wells with substrate only) with the formula below: […]
IC50 and Hill coefficients were obtained using Graph Pad Prism (Graph Pad software, Inc, USA) with non-linear regression analysis.

Structures are written as SMILES.

As to `CNC(=O)c1ncc(NC(=O)C2CC(C)(C)c3c2cnc2cc(Cl)nn32)cc1C(F)(F)F` (single isomer, unassigned) [Example 155, 2-chloro-8,8-dimethyl-N-(6-(methylcarbamoyl)-5-(trifluoromethyl)pyridin-3-yl)-7,8-dihydro-6H-cyclopenta[e]pyrazolo[1,5-a]pyrimidine-6-carboxamide], the IC50 fell in the range of 10 to 100 nM.

`CC1(C)CC(C(=O)Nc2cnc(N=S(C)(C)=O)c(Cl)c2)c2cnc3cc(F)nn3c21` (single isomer, unassigned) [Example 132, N-(5-chloro-6-((dimethyl(oxo)-λ^6-sulfaneylidene)amino)pyridin-3-yl)-2-fluoro-8,8-dimethyl-7,8-dihydro-6H-cyclopenta[e]pyrazolo[1,5-a]pyrimidine-6-carboxamide] returned an IC50 of 10 to 100 nM.

In turn, `C[C@]1(C(F)(F)F)C[C@@H](C(=O)Nc2cnc(-n3nccn3)c(C(F)(F)F)c2)c2cnc3cc(Cl)nn3c21` (single isomer, unassigned) [Example 55, N-(6-(2H-1,2,3-triazol-2-yl)-5˜(trifluoromethyl)pyridin-3-yl)-2-chloro-8-methyl-8-(trifluoromethyl)-7,8-dihydro-6H-cyclopenta[e]pyrazolo[1,5-a]pyrimidine-6-carboxamide] yielded a half-maximal inhibitory concentration (IC50) of 10 to 100 nM.

On to `CC1(C)CC(C)(C(=O)Nc2cnc(-n3nccn3)c(Cl)c2)c2cnc3cc(Cl)nn3c21` (single isomer, unassigned) [Example 139, 2-chloro-N-(5-chloro-6-(2H-1,2,3-triazol-2-yl)pyridin-3-yl)-6,8,8-trimethyl-7,8-dihydro-6H-cyclopenta[e]pyrazolo[1,5-a]pyrimidine-6-carboxamide], for which the concentration for half-maximal inhibition (IC50) was not below 1000 nM.

Turning to `Cc1cc(NC(=O)C2CC(C)(C)c3c2cnc2cc(F)nn32)cnc1-c1ccn(C)n1` (stereo not shown) [Example 177, 2-fluoro-8,8-dimethyl-N-(5-methyl-6-(1-methyl-1H-pyrazol-3-yl)pyridin-3-yl)-7,8-dihydro-6H-cyclopenta[e]pyrazolo[1,5-a]pyrimidine-6-carboxamide], the IC50 lay within 100 to 1000 nM.

In the case of `CC1(C)C[C@H](C(=O)Nc2cc(C(F)F)c(-c3ncco3)c(=O)[nH]2)c2cnc3cc(Cl)nn3c21` (single isomer, unassigned) [Example 58, 2-chloro-N-(4-(difluoromethyl)-5˜(oxazol-2-yl)-6-oxo-1,6-dihydropyridin-2-yl)-8,8-dimethyl-7,8-dihydro-6H-cyclopenta[e]pyrazolo[1,5-a]pyrimidine-6-carboxamide], the IC50 was in the range of 10 to 100 nM.

On to `CC1(C)CC(C(=O)Nc2cnc(-n3nccn3)c(Cl)c2)c2cnn3cc(C(F)F)nc3c21` (single isomer, unassigned) [Example 203, N-(5-chloro-6-(2H-1,2,3-triazol-2-yl)pyridin-3-yl)-2-(difluoromethyl)-9,9-dimethyl-8,9-dihydro-7H-cyclopenta[d]imidazo[1,2-b]pyridazine-7-carboxamide], for which the IC50 was 10 to 100 nM.

The compound `CC1(C)C[C@@H](C(=O)Nc2cnc(-n3nccn3)c(C#N)c2)c2cnn3cc(C(F)F)nc3c21` (single isomer, unassigned) [Example 196, N-(5-cyano-6-(2H-1,2,3-triazol-2-yl)pyridin-3-yl)-2-(difluoromethyl)-9,9-dimethyl-8,9-dihydro-7H-cyclopenta[d]imidazo[1,2-b]pyridazine-7-carboxamide] showed an IC50 of 100 to 1000 nM.

In turn, `Cc1cc(NC(=O)C2CC(C)(C)c3c2cnc2cc(F)nn32)cnc1-c1cnn(C)c1` (stereo not shown) [Example 178, 2-fluoro-8,8-dimethyl-N-(5-methyl-6-(1-methyl-1H-pyrazol-4-yl)pyridin-3-yl)-7,8-dihydro-6H-cyclopenta[e]pyrazolo[1,5-a]pyrimidine-6-carboxamide] came in with an IC50 not below 1000 nM.

For `CC1(C)C[C@@H](C(=O)Nc2cnc(C(=O)NC3CC3)c(C(F)F)c2)c2cnc3cc(Cl)nn3c21` (single isomer, unassigned) [Example 172], the IC50 was not below 1000 nM.
